Measured values as given in article PMC6717395 (Drug Design, Development and Therapy, 2019).

Tests used:
ABTS antioxidant assay = conditions: for ABTS percent inhibition (mean ± S.E.M): n=3; for ABTS IC50: ABTS radical scavenging
DPPH antioxidant assay = conditions: for DPPH % inhibition (mean ± S.E.M): n=3; for DPPH IC50: DPPH radical scavenging
[1] = biological target: acetylcholinesterase (AChE) (Homo sapiens, UniProt P22303); assay: biochemical
[2] = biological target: butyrylcholinesterase (BChE) (Homo sapiens, UniProt P06276); assay: Anticholinesterase assay; type: biochemical
Sequence of butyrylcholinesterase (BChE) (P06276 29-602, species assumed): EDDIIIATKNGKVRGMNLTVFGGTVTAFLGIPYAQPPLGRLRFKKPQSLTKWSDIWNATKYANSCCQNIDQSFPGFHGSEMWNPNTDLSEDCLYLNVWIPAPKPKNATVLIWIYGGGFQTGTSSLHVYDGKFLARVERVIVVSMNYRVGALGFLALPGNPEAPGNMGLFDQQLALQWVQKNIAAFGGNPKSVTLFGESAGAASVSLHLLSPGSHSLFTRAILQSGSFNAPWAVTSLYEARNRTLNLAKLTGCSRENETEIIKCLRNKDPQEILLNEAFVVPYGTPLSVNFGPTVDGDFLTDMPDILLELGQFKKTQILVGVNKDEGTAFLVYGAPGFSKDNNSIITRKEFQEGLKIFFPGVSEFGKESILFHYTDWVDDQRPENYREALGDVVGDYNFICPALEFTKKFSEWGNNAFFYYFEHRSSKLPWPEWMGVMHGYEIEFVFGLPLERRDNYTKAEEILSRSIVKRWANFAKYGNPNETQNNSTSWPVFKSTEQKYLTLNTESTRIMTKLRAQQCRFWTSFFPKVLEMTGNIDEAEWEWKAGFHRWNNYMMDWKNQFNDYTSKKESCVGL

[3] = read-out: Percent BChE (mean ± SEM) inhibition

Sequence of acetylcholinesterase (AChE) (P22303 32-614, species assumed): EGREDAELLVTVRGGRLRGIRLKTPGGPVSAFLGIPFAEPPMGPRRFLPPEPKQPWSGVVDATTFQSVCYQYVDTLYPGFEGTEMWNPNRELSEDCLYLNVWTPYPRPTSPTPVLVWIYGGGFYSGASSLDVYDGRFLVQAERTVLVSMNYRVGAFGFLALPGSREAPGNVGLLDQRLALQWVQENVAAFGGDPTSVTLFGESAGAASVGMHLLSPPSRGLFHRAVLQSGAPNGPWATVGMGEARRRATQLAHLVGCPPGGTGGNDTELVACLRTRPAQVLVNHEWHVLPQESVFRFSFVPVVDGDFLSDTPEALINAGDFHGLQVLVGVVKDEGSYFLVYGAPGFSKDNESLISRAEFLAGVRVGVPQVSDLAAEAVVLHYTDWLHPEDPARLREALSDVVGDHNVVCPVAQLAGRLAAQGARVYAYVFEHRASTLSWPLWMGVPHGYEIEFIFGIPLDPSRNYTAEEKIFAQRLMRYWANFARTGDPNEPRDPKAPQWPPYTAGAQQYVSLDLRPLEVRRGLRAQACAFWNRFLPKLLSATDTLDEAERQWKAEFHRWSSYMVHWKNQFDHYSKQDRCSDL

SMILES	ABTS percent inhibition (mean ± S.E.M) (ABTS antioxidant assay; 62.5 μg/mL)	ABTS percent inhibition (mean ± S.E.M) (ABTS antioxidant assay; 125 μg/mL)	ABTS percent inhibition (mean ± S.E.M) (ABTS antioxidant assay; 250 μg/mL)	ABTS percent inhibition (mean ± S.E.M) (ABTS antioxidant assay; 500 μg/mL)	ABTS percent inhibition (mean ± S.E.M) (ABTS antioxidant assay; 1000 μg/mL)	ABTS IC50 (ABTS antioxidant assay)	DPPH % inhibition (mean ± S.E.M) (DPPH antioxidant assay; 62.5 μg/mL)	DPPH % inhibition (mean ± S.E.M) (DPPH antioxidant assay; 125 μg/mL)	DPPH % inhibition (mean ± S.E.M) (DPPH antioxidant assay; 250 μg/mL)	DPPH % inhibition (mean ± S.E.M) (DPPH antioxidant assay; 500 μg/mL)	DPPH % inhibition (mean ± S.E.M) (DPPH antioxidant assay; 1000 μg/mL)	DPPH IC50 (DPPH antioxidant assay)	inhibition at 62.5 µg/mL [2, 3]	also measured
O=C(O)CCCCC(=O)O [Compound VIII, Hexanedioic acid]	41.70±1.06 %	50.02±1.11 %	62.19±0.90 %	70.10±1.20 %	80.23±1.37 %	125 µg/mL	41.17±1.97 %	51.10±2.39 %	63.13±2.17 %	72.84±1.87 %	81.64±2.76 %	118 µg/mL	40.6 ± 1.06%	IC50 [1]: 835 µM; inhibition at 62.5 µg/mL ([1]; read-out: Percent AChE (mean ± SEM) inhibition, 62.5 μg/mL, n=3): 41.7 ± 3.01%; inhibition at 125 µg/mL ([1]; read-out: Percent AChE (mean ± SEM) inhibition, 125 μg/mL, n=3): 50.3 ± 2.1%; inhibition at 250 µg/mL ([1]; read-out: Percent AChE (mean ± SEM) inhibition, 250 μg/mL, n=3): 62.1 ± 2.41%; inhibition at 500 µg/mL ([1]; read-out: Percent AChE (mean ± SEM) inhibition, 500 μg/mL, n=3): 71.2 ± 2.37%; inhibition at 1000 µg/mL ([1]; read-out: Percent AChE (mean ± SEM) inhibition, 1000 μg/mL, n=3): 79.6 ± 2.1%; IC50 [2]: 848 µM; inhibition at 125 µg/mL [2, 3]: 50.1 ± 2.16%; inhibition at 250 µg/mL [2, 3]: 61.2 ± 2.1%; inhibition at 500 µg/mL [2, 3]: 71.3 ± 1.1%; inhibition at 1000 µg/mL [2, 3]: 78.2 ± 1.31%
O=C1O[C@H]([C@@H](O)CO)C(O)=C1O [Ascorbic acid, reference compound]	55.51±1.09%	64.06±1.15%	77.64±3.06%	83.76±1.16%	93.41±0.73%	35 µg/mL	55.05±1.54%	65.30±2.05%	78.89±1.34%	87.21±0.75%	94.88±1.63%	35 µg/mL	–	–
COc1ccc2c3c1O[C@H]1C[C@@H](O)C=C[C@@]31CCN(C)C2 [Galanthamine, reference compound]	–	–	–	–	–	–	–	–	–	–	–	–	53.5 ± 1.69%	–
